The source made the active and inactive calls. No cut-off for these calls is given here.
Legend:
SW480 = test: Antiproliferative activity against human SW480 cells assessed as inhibition of cell growth incubated for 48 hrs by CCK-8 assay; type: functional, cell-based; conditions: SW480, 48 h
LoVo [1] = test: Antiproliferative activity against human LoVo cells assessed as inhibition of cell growth incubated for 48 hrs by CCK-8 assay; type: functional, cell-based
ASPC1 = test: Antiproliferative activity against human ASPC1 cells assessed as inhibition of cell growth incubated for 48 hrs by CCK-8 assay; type: functional, cell-based; conditions: ASPC1, 48 h
BXPC-3 = test: Antiproliferative activity against human BXPC-3 cells assessed as inhibition of cell growth incubated for 48 hrs by CCK-8 assay; type: functional, cell-based; conditions: BXPC-3, 48 h
SW1990 = test: Antiproliferative activity against human SW1990 cells assessed as inhibition of cell growth incubated for 48 hrs by CCK-8 assay; type: functional, cell-based; conditions: SW1990, 48 h
[2] = Cytotoxicity against green monkey Vero cells assessed as inhibition of cell growth incubated for 48 hrs by CCK-8 assay; type: toxicity, cell-based; conditions: African green monkey (Chlorocebus sabaeus)
MDA-MB-231 [3] = test: Induction of morphological changes in human MDA-MB-231 assessed as cell rounding at 0.5 to 2 uM incubated for 48 hrs by microscopic analysis; type: functional, cell-based; conditions: dose 0.5-2 µM
MDA-MB-231 [4] = test: Induction of morphological changes in human MDA-MB-231 assessed as cell contraction at 0.5 to 2 uM incubated for 48 hrs by microscopic analysis; type: functional, cell-based; conditions: dose 0.5-2 µM
MDA-MB-231 [5] = test: Induction of morphological changes in human MDA-MB-231 assessed as loss of adhesion properties at 0.5 to 2 uM incubated for 48 hrs by microscopic analysis; type: functional, cell-based; conditions: dose 0.5-2 µM
HCT-116 = test: Antiproliferative activity against human HCT-116 cells assessed as inhibition of cell proliferation incubated for 3 days by CCK-8 assay; type: functional, cell-based; conditions: HCT-116, 72 h
LoVo [6] = test: Antiproliferative activity against human LoVo cells assessed as inhibition of cell proliferation incubated for 1 day by CCK-8 assay; type: functional, cell-based; conditions: 24 h
LoVo [7] = test: Antiproliferative activity against human LoVo cells assessed as inhibition of cell proliferation incubated for 3 days by CCK-8 assay; type: functional, cell-based; conditions: 72 h
LoVo [8] = test: Antiproliferative activity against human LoVo cells assessed as inhibition of cell proliferation incubated for 4 days by CCK-8 assay; type: functional, cell-based; conditions: 96 h
Tubulin (Homo sapiens) [9] = target: T1, Tubulin (Homo sapiens) (UniProt P68371+Q9H4B7+P0DPH7+P68366+Q13509+Q71U36+P04350+Q3ZCM7+P07437+P68363+Q9BQE3+Q6PEY2+Q13885+Q9BVA1+Q9BUF5); test: Disruption of microtubule network in human MDA-MB-231 cells assessed as reduced microtubule network at 1 to 2 uM incubated for 24 hrs by DAPI staining based fluorescence microscopic analysis; type: cell-based; conditions: dose 1-2 µM
Tubulin (Homo sapiens) [10] = target: T1, Tubulin (Homo sapiens); test: Disruption of microtubule network in human MDA-MB-231 cells assessed as disorganized microtubule network at 1 to 2 uM incubated for 24 hrs by DAPI staining based fluorescence microscopic analysis; type: cell-based; conditions: dose 1-2 µM
Tubulin (Homo sapiens) [11] = target: T1, Tubulin (Homo sapiens); test: Disruption of microtubule network in human MDA-MB-231 cells assessed as atrophy fiber structure at 1 to 2 uM incubated for 24 hrs by DAPI staining based fluorescence microscopic analysis; type: cell-based; conditions: dose 1-2 µM
Tubulin (Homo sapiens) [12] = target: T1, Tubulin (Homo sapiens); test: Disruption of microtubule network in human MDA-MB-231 cells assessed as point-like fiber structure at 1 to 2 uM incubated for 24 hrs by DAPI staining based fluorescence microscopic analysis; type: cell-based; conditions: dose 1-2 µM
MDA-MB-231 [13] = test: Induction of apoptosis in human MDA-MB-231 cells assessed as increase in total apoptotic cells at 0.5 to 2 uM by annexin-V/PI double staining based flow cytometric analysis; type: functional, cell-based; conditions: dose 0.5-2 µM
MDA-MB-231 [14] = test: Induction of apoptosis in human MDA-MB-231 cells assessed as fragmented bright nuclei at 0.5 to 2 uM incubated for 24 hrs by Hoechst 33342 staining based fluorescence microscopic analysis; type: functional, cell-based; conditions: dose 0.5-2 µM
MDA-MB-231 [15] = test: Induction of apoptosis in human MDA-MB-231 cells assessed as upregulation of cleaved-caspase 3 level by Western blotting analysis; type: functional, cell-based; conditions: dose 0.5-2 µM
MDA-MB-231 [16] = test: Induction of apoptosis in human MDA-MB-231 cells assessed as upregulation of Bax level by Western blotting analysis; type: functional, cell-based; conditions: dose 0.5-2 µM
MDA-MB-231 [17] = test: Induction of apoptosis in human MDA-MB-231 cells assessed as decrease in Caspase 3 level by Western blotting analysis; type: functional, cell-based; conditions: dose 0.5-2 µM
MDA-MB-231 [18] = test: Induction of apoptosis in human MDA-MB-231 cells assessed as decrease in HIF-1a level by Western blotting analysis; type: functional, cell-based; conditions: dose 0.5-2 µM
Mitochondrial membrane = test: […] in human MDA-MB-231 cells at 0.5 uM by JC-1 fluorescent probe based flow cytometric analysis (reference value: 2.56 %)
MDA-MB-231 [19] = test: Induction of ROS generation in human MDA-MB-231 cells assessed as increase in green fluorescence at 1 uM incubated for 24 hrs by DCFH-DA staining based flow cytometric analysis (reference value: 62.3 %); type: functional
MDA-MB-231 [20] = test: Induction of ROS generation in human MDA-MB-231 cells assessed as increase in green fluorescence incubated for 24 hrs by DCFH-DA staining based flow cytometric analysis relative to control; type: functional, cell-based; conditions: dose 0.5-2 µM

Q: With `O=C(/C=C/c1cn(S(=O)(=O)c2ccc([N+](=O)[O-])cc2)c2ccc(N3CCOCC3)cc12)c1cccnc1` as the molecule, how does the IC50 (SW480) read?
A: Its IC50 is 687 nM.

Q: What about the IC50 (LoVo [1]) of the same molecule?
A: Its IC50 is 446 nM.

Q: What about the IC50 (ASPC1) of the same molecule?
A: The IC50 was 1110 nM.

Q: What about the IC50 (BXPC-3) of the same molecule?
A: Its IC50 is 1270 nM.

Q: And the IC50 (SW1990)?
A: The IC50 was 927 nM.

Q: What about the IC50 at 48 h [2] of the same molecule?
A: The IC50 at 48 h was 2320 nM.

Q: What about the Activity (MDA-MB-231 [3]) of the same molecule?
A: Its Activity is “Active”.

Q: And the Activity (MDA-MB-231 [4])?
A: The Activity was “Active”.

Q: What about the Activity (MDA-MB-231 [5]) of the same molecule?
A: Its Activity is “Active”.

Q: What about the IC50 (HCT-116) of the same molecule?
A: Its IC50 is 393 nM.

Q: And the IC50 (LoVo [6])?
A: Its IC50 is 1170 nM.

Q: What about the IC50 (LoVo [7]) of the same molecule?
A: The IC50 was 551 nM.

Q: And the IC50 (LoVo [8])?
A: Its IC50 is 629 nM.

Q: What about the Activity (Tubulin (Homo sapiens) [9]) of the same molecule?
A: The Activity was “Active”.

Q: And the Activity (Tubulin (Homo sapiens) [10])?
A: The Activity was “Active”.

Q: What about the Activity (Tubulin (Homo sapiens) [11]) of the same molecule?
A: Its Activity is “Active”.

Q: And the Activity (Tubulin (Homo sapiens) [12])?
A: Its Activity is “Active”.

Q: And the Activity (MDA-MB-231 [13])?
A: Its Activity is “Time-dependent-effect”.

Q: What about the Activity (MDA-MB-231 [14]) of the same molecule?
A: The Activity was “Active”.

Q: And the Activity (MDA-MB-231 [15])?
A: Its Activity is “Dose-dependent-effect”.

Q: And the Activity (MDA-MB-231 [16])?
A: The Activity was “Dose-dependent-effect”.

Q: What about the Activity (MDA-MB-231 [17]) of the same molecule?
A: The Activity was “Dose-dependent-effect”.

Q: What about the Activity (MDA-MB-231 [18]) of the same molecule?
A: The Activity was “Dose-dependent-effect”.

Q: And the Activity (Mitochondrial membrane)?
A: Its Activity is 5.5%.

Q: And the Activity (MDA-MB-231 [19])?
A: The Activity was 90.4%.

Q: What about the Activity (MDA-MB-231 [20]) of the same molecule?
A: The Activity was “Dose-dependent-effect”.
